ChEMBL document CHEMBL4376820, “Homodimeric Tobramycin Adjuvant Repurposes Novobiocin as an Effective Antibacterial Agent against Gram-Negative Bacteria” (J Med Chem, 2019)
Activity calls are given as the source filed them. No cut-off for these calls is given here.

Tests used:
Enterobacter cloacae = test: Potentiation of novobiocin-induced antibacterial activity against colistin-resistant Enterobacter cloacae 121187 clinical solate assessed as fold reduction in novobiocin MIC incubated for 18 hrs by CLSI protocol based assay relative to novobiocin MIC; assay type: functional
Pseudomonas aeruginosa [1] = test: Synergistic antibacterial activity against wild type Pseudomonas aeruginosa PAO1 assessed as potentiation of linezolid-induced antibacterial effect incubated for 18 hrs by checkerboard assay relative to linezolid alone; assay type: functional
Pseudomonas aeruginosa [2] = test: Antibacterial activity against mexAB-oprM mutant deficient Pseudomonas aeruginosa PAO200 incubated for 18 hrs by CLSI protocol based assay; assay type: functional; conditions: PAO200, 18 h
Acinetobacter baumannii [3] = test: Potentiation of novobiocin-induced antibacterial activity against Acinetobacter baumannii 027 clinical isolate assessed as fold reduction in novobiocin MIC incubated for 18 hrs by CLSI protocol based assay relative to novobiocin MIC; assay type: functional
Acinetobacter baumannii [4] = test: Antibacterial activity against Acinetobacter baumannii LAC-4 clinical isolate incubated for 18 hrs by CLSI protocol based assay; assay type: functional; conditions: LAC-4, 18 h
Pseudomonas aeruginosa [5] = test: Potentiation of novobiocin-induced antibacterial activity against carbapenem-resistant Pseudomonas aeruginosa 264-104354 clinical isolate assessed as fold reduction in novobiocin MIC incubated for 18 hrs by CLSI protocol based assay relative to novobiocin MIC; assay type: functional
Pseudomonas aeruginosa [6] = test: Potentiation of novobiocin-induced antibacterial activity against carbapenem-resistant Pseudomonas aeruginosa 260-97103 clinical isolate assessed as novobiocin MIC at <= 7.1 uM incubated for 18 hrs by CLSI protocol based assay (reference value: 256 ug/ml); assay type: functional; conditions: 260-97103, 18 h
Pseudomonas aeruginosa [7] = test: Synergistic antibacterial activity against wild type Pseudomonas aeruginosa PAO1 assessed as potentiation of ceftazidime-induced antibacterial effect incubated for 18 hrs by checkerboard assay relative to ceftazidime alone; assay type: functional
Escherichia coli [8] = test: Potentiation of novobiocin-induced antibacterial activity against carbapenem-resistant Escherichia coli 107115 clinical isolate harboring mcr-1 gene assessed as novobiocin MIC at <= 7.1 uM incubated for 18 hrs by CLSI protocol based assay (reference value: 128 ug/ml); assay type: functional; conditions: Escherichia coli, 107115, 18 h
Escherichia coli [9] = test: Antibacterial activity against colistin-resistant Escherichia coli 94393 clinical isolate harboring mcr-1 gene incubated for 18 hrs by CLSI protocol based assay; assay type: functional; conditions: Escherichia coli, 94393, 18 h
Pseudomonas aeruginosa [10] = test: Potentiation of novobiocin-induced antibacterial activity against wild type Pseudomonas aeruginosa PAO1 assessed as novobiocin MIC at <= 7.1 uM incubated for 18 hrs by CLSI protocol based assay (reference value: 512 ug/ml); assay type: functional; conditions: PAO1, 18 h
Klebsiella pneumoniae = test: Potentiation of novobiocin-induced antibacterial activity against colistin-resistant Klebsiella pneumoniae 113254 clinical isolate assessed as novobiocin MIC at <= 7.1 uM incubated for 18 hrs by CLSI protocol based assay (reference value: 256 ug/ml); assay type: functional; conditions: Klebsiella pneumoniae, 113254, 18 h
Pseudomonas aeruginosa [11] = test: Synergistic antibacterial activity against wild type Pseudomonas aeruginosa PAO1 assessed as potentiation of vancomycin-induced antibacterial effect at <=7.1 uM incubated for 18 hrs by checkerboard assay; assay type: functional, organism-based
Pseudomonas aeruginosa [12] = test: Synergistic antibacterial activity against wild type Pseudomonas aeruginosa PAO1 assessed as potentiation of linezolid-induced antibacterial effect incubated for 18 hrs by checkerboard assay; assay type: functional, organism-based
Escherichia coli [13] = test: Potentiation of novobiocin-induced antibacterial activity against colistin-resistant Escherichia coli 94474 clinical isolate harboring mcr-1 gene assessed as novobiocin MIC at <= 7.1 uM incubated for 18 hrs by CLSI protocol based assay (reference value: 256 ug/ml); assay type: functional; conditions: Escherichia coli, 94474, 18 h
Acinetobacter baumannii [14] = test: Potentiation of novobiocin-induced antibacterial activity against Acinetobacter baumannii 031 clinical isolate assessed as novobiocin MIC at <= 7.1 uM incubated for 18 hrs by CLSI protocol based assay (reference value: 8 ug/ml); assay type: functional; conditions: Acinetobacter baumannii, 031, 18 h
Escherichia coli [15] = test: Potentiation of novobiocin-induced antibacterial activity against colistin-resistant Escherichia coli 94393 clinical isolate harboring mcr-1 gene assessed as novobiocin MIC at <= 7.1 uM incubated for 18 hrs by CLSI protocol based assay (reference value: 128 ug/ml); assay type: functional; conditions: Escherichia coli, 94393, 18 h
Pseudomonas aeruginosa [16] = test: Antibacterial activity against carbapenem-resistant Pseudomonas aeruginosa 264-104354 clinical isolate incubated for 18 hrs by CLSI protocol based assay; assay type: functional; conditions: 264-104354, 18 h
Pseudomonas aeruginosa [17] = test: Potentiation of novobiocin-induced antibacterial activity against carbapenem and colistin-resistant Pseudomonas aeruginosa 114228 clinical isolate assessed as fold reduction in novobiocin MIC incubated for 18 hrs by CLSI protocol based assay relative to novobiocin MIC; assay type: functional
Pseudomonas aeruginosa [18] = test: Synergistic antibacterial activity against wild type Pseudomonas aeruginosa PAO1 assessed as potentiation of clindamycin-induced antibacterial effect incubated for 18 hrs by checkerboard assay relative to clindamycin alone; assay type: functional
Acinetobacter baumannii [19] = test: Potentiation of novobiocin-induced antibacterial activity against wild type Acinetobacter baumannii ATCC 17978 assessed as novobiocin MIC at <= 7.1 uM incubated for 18 hrs by CLSI protocol based assay (reference value: 16 ug/ml); assay type: functional; conditions: ATCC 17978, 18 h
Pseudomonas aeruginosa [20] = test: Potentiation of novobiocin-induced antibacterial activity against carbapenem-resistant Pseudomonas aeruginosa 262-101856 clinical isolate assessed as fold reduction in novobiocin MIC incubated for 18 hrs by CLSI protocol based assay relative to novobiocin MIC; assay type: functional
Escherichia coli [21] = test: Potentiation of novobiocin-induced antibacterial activity against colistin-resistant Escherichia coli 94474 clinical isolate harboring mcr-1 gene assessed as fold reduction in novobiocin MIC incubated for 18 hrs by CLSI protocol based assay relative to novobiocin MIC; assay type: functional
Acinetobacter baumannii [22] = test: Potentiation of novobiocin-induced antibacterial activity against novobiocin and colistin resistant Acinetobacter baumannii ATCC 17978 mutant generated from seven serial passages by checkerboard assay; assay type: functional, organism-based
Pseudomonas aeruginosa [23] = test: Potentiation of novobiocin-induced antibacterial activity against carbapenem-resistant Pseudomonas aeruginosa 259-96918 clinical isolate assessed as novobiocin MIC at <= 7.1 uM incubated for 18 hrs by CLSI protocol based assay (reference value: 512 ug/ml); assay type: functional; conditions: 259-96918, 18 h
Pseudomonas aeruginosa [24] = test: Antibacterial activity against wild type Pseudomonas aeruginosa PAO1 assessed as fractional inhibitory concentration index incubated for 18 hrs in presence of colistin by checkerboard assay; assay type: functional
Escherichia coli [25] = test: Potentiation of novobiocin-induced antibacterial activity against wild type Escherichia coli ATCC 25922 assessed as fold reduction in novobiocin MIC incubated for 18 hrs by CLSI protocol based assay relative to novobiocin MIC; assay type: functional
Escherichia coli [26] = test: Potentiation of novobiocin-induced antibacterial activity against carbapenem-resistant Escherichia coli 107115 clinical isolate harboring mcr-1 gene assessed as fold reduction in novobiocin MIC incubated for 18 hrs by CLSI protocol based assay relative to novobiocin MIC; assay type: functional
Pseudomonas aeruginosa [27] = test: Synergistic antibacterial activity against wild type Pseudomonas aeruginosa PAO1 assessed as potentiation of cefotaxime-induced antibacterial effect incubated for 18 hrs by checkerboard assay; assay type: functional, organism-based
Pseudomonas aeruginosa [28] = test: Potentiation of novobiocin-induced antibacterial activity against carbapenem-resistant Pseudomonas aeruginosa 100036 clinical isolate assessed as novobiocin MIC at <= 7.1 uM incubated for 18 hrs by CLSI protocol based assay (reference value: 1024 ug/ml); assay type: functional; conditions: Pseudomonas aeruginosa, 100036, 18 h
Pseudomonas aeruginosa [29] = test: Synergistic antibacterial activity against wild type Pseudomonas aeruginosa PAO1 assessed as potentiation of ciprofloxacin-induced antibacterial effect incubated for 18 hrs by checkerboard assay relative to ciprofloxacin alone; assay type: functional

## NC[C@H]1O[C@H](O[C@H]2[C@H](OCCCCc3cn(CCCCO[C@@H]4[C@@H](O[C@H]5O[C@H](CO)[C@@H](O)[C@H](N)[C@H]5O)[C@H](N)C[C@H](N)[C@H]4O[C@H]4O[C@H](CN)[C@@H](O)C[C@H]4N)nn3)[C@@H](O[C@H]3O[C@H](CO)[C@@H](O)[C@H](N)[C@H]3O)[C@H](N)C[C@@H]2N)[C@H](N)C[C@@H]1O.O=C(O)C(F)(F)F.O=C(O)C(F)(F)F.O=C(O)C(F)(F)F.O=C(O)C(F)(F)F.O=C(O)C(F)(F)F.O=C(O)C(F)(F)F.O=C(O)C(F)(F)F.O=C(O)C(F)(F)F.O=C(O)C(F)(F)F.O=C(O)C(F)(F)F
Enterobacter cloacae
  Ratio: 8
Pseudomonas aeruginosa [1]
  fold change (FC): 4 - 128
Pseudomonas aeruginosa [2]
  MIC: > 128 µg/mL
Acinetobacter baumannii [3]
  Ratio: 16
Acinetobacter baumannii [4]
  MIC: > 128 µg/mL
Pseudomonas aeruginosa [5]
  Ratio: 64
Pseudomonas aeruginosa [6]
  MIC: 1 µg/mL
Pseudomonas aeruginosa [7]
  fold change (FC): 4 - 128
Escherichia coli [8]
  MIC: 8 µg/mL
Escherichia coli [9]
  MIC: > 128 µg/mL
Pseudomonas aeruginosa [10]
  MIC: 4 µg/mL
Klebsiella pneumoniae
  MIC: 16 µg/mL
Pseudomonas aeruginosa [11]
  Activity: inactive
Pseudomonas aeruginosa [12]
  Activity: Dose-dependent effect
Escherichia coli [13]
  MIC: 16 µg/mL
Acinetobacter baumannii [14]
  MIC: 0.5 µg/mL
Escherichia coli [15]
  MIC: 2 µg/mL
Pseudomonas aeruginosa [16]
  MIC: > 128 µg/mL
Pseudomonas aeruginosa [17]
  Ratio: 32
Pseudomonas aeruginosa [18]
  fold change (FC): 4 - 128
Acinetobacter baumannii [19]
  MIC: 0.5 µg/mL
Pseudomonas aeruginosa [20]
  Ratio: 64
Escherichia coli [21]
  Ratio: 16
Acinetobacter baumannii [22]
  Activity: inactive
Pseudomonas aeruginosa [23]
  MIC: 8 µg/mL
Pseudomonas aeruginosa [24]
  fractional inhibitory concentration index (FICI): >4
Escherichia coli [25]
  Ratio: 32
Escherichia coli [26]
  Ratio: 16
Pseudomonas aeruginosa [27]
  Activity: Dose-dependent effect
Pseudomonas aeruginosa [28]
  MIC: 8 µg/mL
Pseudomonas aeruginosa [29]
  fold change (FC): 4 - 128
